Consider 9 molecules from paper PMC9516332 (Frontiers in Oncology, 2022).

Holding throughout (test): Kinase panel profiling at 1 µmol/L (MSA or IMAP), percentage inhibition
Assay type in all cases: biochemical

The target of test [1] is panel of 255 wild-type kinases (Homo sapiens, UniProt O96017). As to conditions: read-out: %-inhibition CHK2.
For test [2], the target named is panel of 255 wild-type kinases (Homo sapiens, UniProt P05129). As to conditions: read-out: %-inhibition at 1 µmol/L, PKCγ.
The target in test [3] is panel of 255 wild-type kinases (Homo sapiens, UniProt P07947). Conditions: read-out: %-inhibition at 1 µmol/L, YES.
The target in test [4] is T1, panel of 255 wild-type kinases (Homo sapiens, UniProt P21709).
T1 sequence (P21709 26-976): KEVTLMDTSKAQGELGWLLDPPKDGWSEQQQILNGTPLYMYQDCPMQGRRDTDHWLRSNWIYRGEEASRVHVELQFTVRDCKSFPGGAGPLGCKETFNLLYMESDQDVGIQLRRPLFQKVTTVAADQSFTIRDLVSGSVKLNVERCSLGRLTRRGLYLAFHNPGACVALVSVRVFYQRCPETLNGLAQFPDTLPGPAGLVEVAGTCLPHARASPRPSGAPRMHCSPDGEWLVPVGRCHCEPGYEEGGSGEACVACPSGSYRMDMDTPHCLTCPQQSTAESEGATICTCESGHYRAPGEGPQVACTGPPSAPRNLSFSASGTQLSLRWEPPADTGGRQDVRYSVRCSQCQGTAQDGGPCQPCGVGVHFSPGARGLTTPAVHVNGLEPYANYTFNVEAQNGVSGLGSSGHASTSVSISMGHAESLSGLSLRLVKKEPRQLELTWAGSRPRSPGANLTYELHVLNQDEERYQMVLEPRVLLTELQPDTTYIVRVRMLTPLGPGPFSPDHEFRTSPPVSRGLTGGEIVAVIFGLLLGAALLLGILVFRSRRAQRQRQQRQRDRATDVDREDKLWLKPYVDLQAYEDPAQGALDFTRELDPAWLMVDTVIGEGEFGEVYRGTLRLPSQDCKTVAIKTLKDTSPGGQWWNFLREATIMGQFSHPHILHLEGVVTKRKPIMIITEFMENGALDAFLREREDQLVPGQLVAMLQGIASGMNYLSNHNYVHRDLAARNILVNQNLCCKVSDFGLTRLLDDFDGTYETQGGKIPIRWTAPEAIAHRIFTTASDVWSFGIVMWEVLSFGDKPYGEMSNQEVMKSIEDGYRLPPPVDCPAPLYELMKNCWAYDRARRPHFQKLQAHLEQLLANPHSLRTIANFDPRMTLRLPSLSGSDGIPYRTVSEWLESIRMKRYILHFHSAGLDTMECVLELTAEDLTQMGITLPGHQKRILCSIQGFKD
Conditions: read-out: %-inhibition at 1 µmol/L, EPHA1.

For test [5], the target named is panel of 255 wild-type kinases (Homo sapiens, UniProt P45984). As to conditions: read-out: %-inhibition at 1 µmol/L, JNK2.
Test [6] deals with panel of 255 wild-type kinases (Homo sapiens, UniProt P48730). As to conditions: read-out: %-inhibition at 1 µmol/L, CK1δ.
Test [7] concerns the target panel of 255 wild-type kinases (Homo sapiens, UniProt P51812). As to conditions: read-out: %-inhibition at 1 µmol/L, RSK2.
For test [8], the target named is panel of 255 wild-type kinases (Homo sapiens, UniProt Q04912). Conditions: read-out: %-inhibition at 1 µmol/L, RON.
Test [9] concerns the target panel of 255 wild-type kinases (Homo sapiens, UniProt Q13164). Conditions: read-out: %-inhibition at 1 µmol/L, Erk5.
Test [10] deals with T2, panel of 255 wild-type kinases (Homo sapiens, UniProt Q14164).
T2 sequence (Q14164 1-716): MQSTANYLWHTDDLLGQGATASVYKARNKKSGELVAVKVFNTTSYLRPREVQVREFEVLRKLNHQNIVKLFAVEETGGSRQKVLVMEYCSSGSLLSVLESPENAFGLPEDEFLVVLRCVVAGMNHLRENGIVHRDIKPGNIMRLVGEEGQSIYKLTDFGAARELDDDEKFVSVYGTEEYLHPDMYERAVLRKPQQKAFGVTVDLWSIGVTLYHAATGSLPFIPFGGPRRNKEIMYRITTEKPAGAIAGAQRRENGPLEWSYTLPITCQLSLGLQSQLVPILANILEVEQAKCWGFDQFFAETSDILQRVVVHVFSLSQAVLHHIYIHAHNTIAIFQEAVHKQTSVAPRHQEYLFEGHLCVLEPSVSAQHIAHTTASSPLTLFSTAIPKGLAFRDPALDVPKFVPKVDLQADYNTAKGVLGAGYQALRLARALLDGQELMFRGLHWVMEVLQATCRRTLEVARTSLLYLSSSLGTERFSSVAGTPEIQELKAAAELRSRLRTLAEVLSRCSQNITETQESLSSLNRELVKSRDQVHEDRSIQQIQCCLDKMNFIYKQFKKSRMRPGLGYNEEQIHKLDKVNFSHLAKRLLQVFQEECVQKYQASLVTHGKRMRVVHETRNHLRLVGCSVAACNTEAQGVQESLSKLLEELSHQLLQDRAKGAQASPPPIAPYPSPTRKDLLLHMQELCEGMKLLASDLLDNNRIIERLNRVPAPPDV
Conditions: read-out: %-inhibition at 1 µmol/L, IKKε.

Test [11] has as its target panel of 255 wild-type kinases (Homo sapiens, UniProt Q9UK32). As to conditions: read-out: %-inhibition at 1 µmol/L, RSK4.
Test [12] has as its target panel of 255 wild-type kinases (Homo sapiens, UniProt Q9UKE5). Conditions: read-out: %-inhibition at 1 µmol/L, TNIK.
Setting [13] is: CHK2 kinase assay, 1 µmol/L single concentration.
[14] abbreviates: kinase PKCγ, 1 µmol/L single concentration.
Setting [15] is: kinase YES, 1 µmol/L single concentration.
Setting [16] is: kinase EPHA1, 1 µmol/L single concentration.
Setting [17] is: kinase JNK2, 1 µmol/L single concentration.
Where [18] appears, read: kinase CK1δ, 1 µmol/L single concentration.
Setting [19] is: kinase RSK2, 1 µmol/L single concentration.
Where [20] appears, read: kinase RON, 1 µmol/L single concentration.
Where [21] appears, read: kinase Erk5, 1 µmol/L single concentration.
[22] abbreviates: kinase IKKε, 1 µmol/L single concentration.
Where [23] appears, read: kinase RSK4, 1 µmol/L single concentration.
The mark [24] stands for this setting: kinase TNIK, 1 µmol/L single concentration.

Where two headings read alike, the source gives them in different places.

On to `Cc1nc(NC(=O)N2CCC[C@H]2C(N)=O)sc1-c1ccnc(C(C)(C)C(F)(F)F)c1` [alpelisib], for which the inhibition at 1 µM in [1] (setting [13]) was -1.14%; in [2] (setting [14]), -1.86%; in test [3] (setting [15]), -4%; in test [4] (setting [16]) it was -3.59%; in test [5] (setting [17]), 0.494%; in [6] (setting [18]), 9%. Also, the inhibition at 1 µM in test [7] (setting [19]) is -1.78%; in [8] (setting [20]), 7%; in test [9] (setting [21]) it was 0.367%; in test [10] (setting [22]) it was -4.31%; in test [11] (setting [23]) it was -4%; in [12] (setting [24]), 4.6%.

In the case of `Cn1cc(-c2cc3c(N4CCN(c5ncc([C@@](C)(N)c6ccc(F)cc6)cn5)CC4)ncnn3c2)cn1` [avapritinib], the inhibition at 1 µM in test [1] (setting [13]) is 5.47%; in test [2] (setting [14]) it was -2.11%; in [3] (setting [15]), 83%; in [4] (setting [16]), 51%; in test [5] (setting [17]), 1.1%; in test [6] (setting [18]), 11%. The inhibition at 1 µM in [7] (setting [19]) is 2.57%; in [8] (setting [20]) it was 48%; in test [9] (setting [21]), 1.78%; in [10] (setting [22]), -0.262%; in test [11] (setting [23]), 7.6%; in test [12] (setting [24]), 30%.

For `Cn1cnc2c(F)c(Nc3ccc(Br)cc3F)c(C(=O)NOCCO)cc21` [binimetinib], the inhibition at 1 µM is 4.21% in test [1] (setting [13]); 0.893% in test [2] (setting [14]); 2.16% in test [3] (setting [15]); 4% in test [4] (setting [16]); -5.47% in [5] (setting [17]); -4% in test [6] (setting [18]). For the same molecule, the inhibition at 1 µM in test [7] (setting [19]) was 0.103%; in [8] (setting [20]), -3.72%; in test [9] (setting [21]), -0.05%; in [10] (setting [22]), -3%; in [11] (setting [23]), -0.233%; in test [12] (setting [24]), 0.137%.

Turning to `CNC(=O)c1ccc(-c2cnc3ncc(Cc4ccc5ncccc5c4)n3n2)cc1F` [capmatinib], the inhibition at 1 µM is -1.52% in test [1]; 0.161% in [2]; 1.32% in test [3]; -3.32% in [4]; -0.668% in test [5]; -1.78% in [6]. The inhibition at 1 µM was -3% in [7]; 13% in test [8]; -3% in test [9]; -5.46% in test [10]; 8% in test [11]; 1.68% in [12].

With `COc1cc2ncnc(Nc3ccc(F)c(Cl)c3)c2cc1NC(=O)/C=C/CN1CCCCC1` [dacomitinib], the inhibition at 1 µM is 23% in test [1] (setting [13]); 4% in [2] (setting [14]); 79% in [4] (setting [16]); 1.27% in [5] (setting [17]); -6.63% in [6] (setting [18]); 8% in test [7] (setting [19]). Further, the inhibition at 1 µM is 5% in test [8] (setting [20]); 0.172% in test [9] (setting [21]); -2.11% in test [10] (setting [22]); 16% in test [11] (setting [23]); 27% in test [12] (setting [24]).

With `C[C@H](Nc1ncnc2nc[nH]c12)c1cc2cccc(Cl)c2c(=O)n1-c1ccccc1` [duvelisib], the inhibition at 1 µM is -3.49% in test [1] (setting [13]); -4.38% in test [2] (setting [14]); -2.44% in test [3] (setting [15]); -7% in [4] (setting [16]); 2% in [5] (setting [17]); -4.49% in test [6] (setting [18]). The inhibition at 1 µM is -3.62% in test [7] (setting [19]); 8% in test [8] (setting [20]); -0.634% in test [9] (setting [21]); -0.56% in test [10] (setting [22]); -5% in test [11] (setting [23]); 5% in [12] (setting [24]).

On to `CN1CCN(c2ccc(C(=O)Nc3n[nH]c4ccc(Cc5cc(F)cc(F)c5)cc34)c(NC3CCOCC3)c2)CC1` [entrectinib], for which the inhibition at 1 µM in [1] (setting [13]) was 31%; in [2] (setting [14]) it was 1%; in test [3] (setting [15]) it was 98%; in test [4] (setting [16]), 88%; in test [5] (setting [17]), 7%; in [6] (setting [18]) it was -5%. Moreover, the inhibition at 1 µM worked out at 33% in [8] (setting [20]), 13% in test [9] (setting [21]), 7% in [10] (setting [22]) and 20% in test [12] (setting [24]).

As to `CCN1CCN(c2ccc(Nc3cc(N(C)C(=O)Nc4c(Cl)c(OC)cc(OC)c4Cl)ncn3)cc2)CC1` [infigratinib], the inhibition at 1 µM was -0.482% in test [1] (setting [13]); 0.114% in test [2] (setting [14]); 77% in test [3] (setting [15]); -2% in [4] (setting [16]); 2.8% in test [5] (setting [17]); -4.4% in test [6] (setting [18]). For the same molecule, the inhibition at 1 µM in [7] (setting [19]) was -7%; in test [8] (setting [20]), 0.707%; in [9] (setting [21]), 30%; in [10] (setting [22]) it was -6%; in test [11] (setting [23]) it was 7%.

Turning to `C=CC(=O)N1CCC([C@@H]2CCNc3c(C(N)=O)c(-c4ccc(Oc5ccccc5)cc4)nn32)CC1` [zanubrutinib], the inhibition at 1 µM in test [1] (setting [13]) is 4%; in test [2] (setting [14]) it was -2.24%; in [4] (setting [16]), -0.68%; in test [5] (setting [17]), -1.18%; in test [6] (setting [18]) it was -4%; in test [7] (setting [19]) it was -6%. The inhibition at 1 µM was 5% in test [8] (setting [20]); 3.76% in test [9] (setting [21]); 6% in test [10] (setting [22]); -6% in [11] (setting [23]); 6.44% in test [12] (setting [24]).
